Results published in EP0412877A1, “Oral galenic form to improve bioavailability” (priority 1989, dated 1991).
Read-outs that look alike come from different tables or passages of the source.

Experiments:
[1] = Solubility in water (stated in words); settings: result in words
[2] = human, in vivo, 0 min
[3] = human, in vivo
[4] = Dissolution kinetics of dihydropyridines (figure 7); format: physicochemical; settings: Nifédipine à l'état brut, oxodipine à l'état de coprécipité, without PROSOBEL
Description: On peut en conclure que le PROSOBEL, de façon très inattendue pour l'homme de métier, ralentit la dissolution en milieu aqueux, et permet l'obtention de formes pharmaceutiques originales et nouvelles, de dihydropyridines à biodisponibilité contrôlée.

[5] = Plasma concentrations after single oral administration of oxodipine forms to 6 healthy subjects; settings: human, 20 mg
[6] = In vitro dissolution kinetics in distilled water and intestinal juice; format: physicochemical; settings: eau distillée and suc intestinal

solubilité dans l'eau [1]: faible
Concentration [2]: 0,0 ng/ml
% DE DOSE ENTRES DANS L'ORGANISME APRES ABSORPTION ET PASSAGE HEPATIQUE ([3]; 10.2 min): 2,5%
% DE DOSE ENTRES DANS L'ORGANISME APRES ABSORPTION ET PASSAGE HEPATIQUE ([3]; 19.8 min): 1,6%
% DE DOSE ENTRES DANS L'ORGANISME APRES ABSORPTION ET PASSAGE HEPATIQUE ([3]; 30 min): 4,5%
% DE DOSE ENTRES DANS L'ORGANISME APRES ABSORPTION ET PASSAGE HEPATIQUE ([3]; 39.6 min): 6,6%
% DE DOSE ENTRES DANS L'ORGANISME APRES ABSORPTION ET PASSAGE HEPATIQUE ([3]; 49.8 min): 7,0%
% DE DOSE ENTRES DANS L'ORGANISME APRES ABSORPTION ET PASSAGE HEPATIQUE ([3]; 60 min): 9,3%
% DE DOSE ENTRES DANS L'ORGANISME APRES ABSORPTION ET PASSAGE HEPATIQUE ([3]; 75 min): 11%
% DE DOSE ENTRES DANS L'ORGANISME APRES ABSORPTION ET PASSAGE HEPATIQUE ([3]; 90 min): 11,4%
% DE DOSE ENTRES DANS L'ORGANISME APRES ABSORPTION ET PASSAGE HEPATIQUE ([3]; 120 min): 14,0%
% DE DOSE ENTRES DANS L'ORGANISME APRES ABSORPTION ET PASSAGE HEPATIQUE ([3]; 180 min): 16,6%
% DE DOSE ENTRES DANS L'ORGANISME APRES ABSORPTION ET PASSAGE HEPATIQUE ([3]; 240 min): 18%
% DE DOSE ENTRES DANS L'ORGANISME APRES ABSORPTION ET PASSAGE HEPATIQUE ([3]; 360 min): 19,8%
% DE DOSE ENTRES DANS L'ORGANISME APRES ABSORPTION ET PASSAGE HEPATIQUE ([3]; 480 min): 21,2%
% DE DOSE ENTRES DANS L'ORGANISME APRES ABSORPTION ET PASSAGE HEPATIQUE ([3]; 600 min): 22,6%
% DE DOSE ENTRES DANS L'ORGANISME APRES ABSORPTION ET PASSAGE HEPATIQUE ([3]; 720 min): 23,8%
biodisponibilité ([3]; 720 min): 31%
BIODIOPONIBILITE RELATIVE PAR RAPPORT A LA SOLUTION ([3]; po): 31%
cinétiques de dissolution [4]: très rapides
concentration at 0.17 h [5]: 1.2 ng/mL
concentration at 0.33 h [5]: 1.4 ng/mL
concentration at 0.5 h [5]: 2.7 ng/mL
concentration at 0.66 h [5]: 4.2 ng/mL
concentration at 0.83 h [5]: 5 ng/mL
concentration at 1 h [5]: 6 ng/mL
concentration at 1.25 h [5]: 6.8 ng/mL
concentration at 1.5 h [5]: 6.5 ng/mL
concentration at 2 h [5]: 6.2 ng/mL
concentration at 3 h [5]: 5.1 ng/mL
concentration at 4 h [5]: 4 ng/mL
concentration at 6 h [5]: 2.4 ng/mL
concentration at 8 h [5]: 1.6 ng/mL
concentration at 10 h [5]: 1.4 ng/mL
concentration at 12 h [5]: 1.2 ng/mL
concentration at 14 h [5]: 1 ng/mL
concentration at 24 h [5]: 1.2 ng/mL
cinétique de dissolution in vitro [6]: lente et limitée
Structure (SMILES): CCOC(=O)C1=C(C)NC(C)=C(C(=O)OC)C1c1cccc2c1OCO2 (centres unmarked) [Poudre 20mg, 1,4-dihydro 4-(2′,3′-méthylènedioxyphényl) 3,5-pyridine dicarboxylatede méthyle et d'éthyle]
